{
  "source": "patent US20070259856A1",
  "about": "“Method for Activating Trpv4 Channel Receptors by Agonists” (priority 2004, published 2007)",
  "key": {"nitric oxide": {"tested_on": "nitric oxide", "experiment": "IL-1 induced nitric oxide production, bovine articular chondrocytes in alginate beads (Greiss reaction)", "format": "cell-based", "details": "IL-1 10 ng/mL", "protocol": "Nitric oxide (NO) is a free radical that is believed to contribute to the tissue destruction in osteoarthritis. While having direct effects on cartilage matrix damage, NO can also contribute by activating latent proteases which leads to increased tissue destruction. To evaluate the effect of TRPV4 channel receptor agonists on NO production, bovine articular chondrocytes were embedded in alginate beads as described in Hauselmann, et al. (1992) Matrix 12: 116-129, and NO levels were determined in the conditioned media by Greiss reaction (Badger A M, et al. (1998) J. Immunol. 161: 467-473), following stimulation by IL-1, in the absence or presence of TRPV4 channel receptor agonist."}, "aggrecanase": {"tested_on": "aggrecanase", "experiment": "IL-1 induced aggrecanase production, chondrocyte-based aggrecanase peptide cleavage assay", "format": "cell-based, bovine", "details": "IL-1 3.0 ng/mL; for Aggrecanase Production (Mean ± SEM OD 450 nm): 24 hour", "text": "Aggrecanases (ADAMTSs), in conjunction with MMPs, degrade aggrecan, one of the major matrix components in articular cartilage. […] 2003; 48(1): 119-133]."}, "proteoglycan synthesis": {"tested_on": "proteoglycan synthesis", "experiment": "Proteoglycan synthesis ([35S] incorporation), bovine articular chondrocytes in alginate beads", "format": "cell-based", "details": "IL-1 10 ng/mL", "text": "Although cartilage degradation is the hallmark of osteoarthritis, there is also a reduction in the ability of chondrocytes to resynthesize damaged matrix. It has been observed that cytokines, including IL-1, cause a significant reduction in collagen and proteoglycan (PG) synthesis. The effect on matrix synthesis, combined with the stimulation of matrix breakdown by these cytokines, leads to an overall net loss of cartilage matrix. The effects of TRPV4 channel receptor agonists on the synthesis of proteoglycans was measured by [^35S] incorporation in bovine articular chondrocytes embedded in alginate beads. IL-1 caused an inhibition of [^35S] incorporation into large molecular weight proteoglycan monomers, and Formula IIb caused a concentration-dependent reversal of the IL1-mediated inhibition of PG synthesis as shown in Table 10."}, "MMP-13": {"tested_on": "MMP-13", "experiment": "IL-1 induced MMP-13 production in human chondrocytes", "format": "cell-based", "details": "IL-1 10 ng/mL, 24 hours", "protocol": "(§1) Human chondrocytes were exposed to L-1 (10 ng/mL) to induce MMP-3 and MMP-13 production. Increased production of MMP-3 and MMP-13 was verified by both Northern blot (mRNA) and ELISA assay (protein). Cells were exposed to Formula IIb at concentrations ranging from 0.1 μM to 10 μM. […] TRPV4 channel receptor agonist inhibits IL-1-induced MMP-3 and MMP-13 production."}, "ADAMTS-4 (aggrecanase-1)": {"target": "T1, ADAMTS-4 (aggrecanase-1) (Homo sapiens, UniProt O75173)", "T1 sequence (O75173 213-837)": "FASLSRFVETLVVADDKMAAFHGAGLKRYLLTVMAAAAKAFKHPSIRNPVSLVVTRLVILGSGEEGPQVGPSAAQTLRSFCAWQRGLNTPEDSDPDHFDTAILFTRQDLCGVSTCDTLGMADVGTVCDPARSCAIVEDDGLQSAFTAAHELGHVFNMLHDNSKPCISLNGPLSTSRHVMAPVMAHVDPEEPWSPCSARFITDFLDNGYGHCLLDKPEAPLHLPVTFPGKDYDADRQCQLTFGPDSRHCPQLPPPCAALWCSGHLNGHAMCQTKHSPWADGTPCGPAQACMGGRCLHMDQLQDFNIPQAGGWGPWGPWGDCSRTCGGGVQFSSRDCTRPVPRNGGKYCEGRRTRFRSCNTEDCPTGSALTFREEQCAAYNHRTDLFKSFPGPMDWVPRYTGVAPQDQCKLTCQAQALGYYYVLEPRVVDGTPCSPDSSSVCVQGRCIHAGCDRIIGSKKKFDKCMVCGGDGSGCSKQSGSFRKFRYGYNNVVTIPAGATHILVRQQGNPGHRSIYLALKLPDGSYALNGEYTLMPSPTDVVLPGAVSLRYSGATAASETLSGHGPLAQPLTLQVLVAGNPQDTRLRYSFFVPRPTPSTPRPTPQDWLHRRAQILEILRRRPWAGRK", "experiment": "Cleavage of the peptide substrate by soluble ADAMTS-4", "format": "biochemical"}, "[1]": {"tested_on": "bovine articular cartilage explants", "experiment": "IL-1 induced collagen degradation (hydroxyproline) in bovine articular cartilage explants", "format": "cell-based", "details": "1 uM, IL-1 50 ng/ml, media from day 14-18", "protocol": "IL-1 stimulates collagen degradation in bovine articular cartilage explants after extended (−2-3 weeks) exposure to IL-1. Collagen breakdown was evaluated by measuring the levels of hydroxyproline, a major component of hydrolyzed collagen fibrils, using a colorimetric assay that is understood in the art. Bovine articular cartilage was stimulated with IL-1 for 18 days, in the absence or presence of Formula Ib or Formula IId (both at 1 uM). Media was removed and replaced every 2-4 days with fresh IL-1 and compound through day 18. As has been shown previously, aggrecan degradation precedes collagen breakdown in IL-1-stimulated bovine cartilage explants. Once aggrecan depletion had been achieved by day 10, media were analyzed for collagen breakdown using the hydroxyproline assay."}, "MMP-3": {"tested_on": "MMP-3", "experiment": "IL-1 induced MMP-3 production in human chondrocytes", "format": "cell-based", "details": "IL-1 10 ng/mL, 24 hours", "protocol": "as §1"}},
  "data": [
    {"smiles": "CC(C)C[C@H](NC(=O)c1cc2ccccc2s1)C(=O)N[C@@H]1CCCN(S(=O)(=O)c2ccc(F)cc2)CC1=O", "note": "[Formula IIb, N-{(1S)-1-[({(4R)-1-[(4-fluorophenyl)sulfonyl]-3-oxohexahydro-1H-azepin-4-yl}amino)carbonyl]-3-methylbutyl}-1-benzothiophene-2-carboxamide]", "values": [
      {"measurement": "NO levels Mean ± SEM", "setting": "nitric oxide; 0.3 μM", "result": "17 ± 1", "unit": "µM"},
      {"measurement": "NO levels Mean ± SEM", "setting": "nitric oxide; 1.0 μM", "result": "6 ± 1", "unit": "µM"},
      {"measurement": "NO levels Mean ± SEM", "setting": "nitric oxide; 3.0 μM", "result": "2 ± 0", "unit": "µM"},
      {"measurement": "inhibition at 0.3 µM", "setting": "nitric oxide; Bos taurus, Chondrocyte, 0.3 μM, read-out: % inhibition of NO", "result": 38, "unit": "%"},
      {"measurement": "inhibition at 1 µM", "setting": "nitric oxide; Bos taurus, Chondrocyte, 1.0 μM, read-out: % inhibition of NO", "result": 81, "unit": "%"},
      {"measurement": "inhibition at 3 µM", "setting": "nitric oxide; Bos taurus, Chondrocyte, 3.0 μM, read-out: % inhibition of NO", "result": 96, "unit": "%"},
      {"measurement": "Aggrecanase Production (Mean ± SEM OD 450 nm)", "setting": "aggrecanase; 0.03 μM", "result": "2.018 ± 0.044", "unit": "OD 450 nm"},
      {"measurement": "Aggrecanase Production (Mean ± SEM OD 450 nm)", "setting": "aggrecanase; 0.10 μM", "result": "1.669 ± 0.029", "unit": "OD 450 nm"},
      {"measurement": "Aggrecanase Production (Mean ± SEM OD 450 nm)", "setting": "aggrecanase; 0.30 μM", "result": "1.139 ± 0.032", "unit": "OD 450 nm"},
      {"measurement": "Aggrecanase Production (Mean ± SEM OD 450 nm)", "setting": "aggrecanase; 1.00 μM", "result": "0.851 ± 0.024", "unit": "OD 450 nm"},
      {"measurement": "inhibition at 0.03 µM", "setting": "aggrecanase; Bos taurus, 0.03 μM", "result": 11, "unit": "%"},
      {"measurement": "inhibition at 0.1 µM", "setting": "aggrecanase; Bos taurus, 0.10 μM", "result": 33, "unit": "%"},
      {"measurement": "inhibition at 0.3 µM", "setting": "aggrecanase; Bos taurus, 0.30 μM", "result": 65, "unit": "%"},
      {"measurement": "inhibition at 1 µM", "setting": "aggrecanase; Bos taurus, 1.00 μM", "result": 83, "unit": "%"},
      {"measurement": "% IL-1 reversal", "setting": "proteoglycan synthesis; 0.3 uM", "result": 3, "unit": "%"},
      {"measurement": "PG synthesis Mean ± SEM", "setting": "proteoglycan synthesis; 0.3 uM", "result": "878 ± 48", "unit": "cpm/bead"},
      {"measurement": "% IL-1 reversal", "setting": "proteoglycan synthesis; 1.0 uM", "result": 15, "unit": "%"},
      {"measurement": "PG synthesis Mean ± SEM", "setting": "proteoglycan synthesis; 1.0 uM", "result": "1066 ± 69", "unit": "cpm/bead"},
      {"measurement": "% IL-1 reversal", "setting": "proteoglycan synthesis; 3.0 uM", "result": 44, "unit": "%"},
      {"measurement": "PG synthesis Mean ± SEM", "setting": "proteoglycan synthesis; 3.0 uM", "result": "1530 ± 73", "unit": "cpm/bead"},
      {"measurement": "MMP-13 mRNA expression Mean", "setting": "MMP-13; 0.1 μM", "result": "0.89 Fraction of IL-1"},
      {"measurement": "MMP-13 mRNA expression Mean", "setting": "MMP-13; 0.3 μM", "result": "0.87 Fraction of IL-1"},
      {"measurement": "MMP-13 mRNA expression Mean", "setting": "MMP-13; 1.0 μM", "result": "0.79 Fraction of IL-1"},
      {"measurement": "MMP-13 mRNA expression Mean", "setting": "MMP-13; 3.0 μM", "result": "0.29 Fraction of IL-1"},
      {"measurement": "MMP-13 mRNA expression Mean", "setting": "MMP-13; 10.00 μM", "result": "0.09 Fraction of IL-1"},
      {"measurement": "effect on cleavage of the peptide substrate by soluble ADAMTS-4", "setting": "ADAMTS-4 (aggrecanase-1)", "result": "no effect"},
      {"measurement": "Hydroxyproline Mean ± SEM", "setting": "[1]", "result": "16 ± 6", "unit": "µg"},
      {"measurement": "inhibition at 1 µM", "setting": "[1]; Bos taurus, 336 h", "result": 81, "unit": "%"},
      {"measurement": "MMP-3 mRNA expression Mean", "setting": "MMP-3; 0.1 μM", "result": "0.92 Fraction of IL-1"},
      {"measurement": "MMP-3 mRNA expression Mean", "setting": "MMP-3; 0.3 μM", "result": "0.91 Fraction of IL-1"},
      {"measurement": "MMP-3 mRNA expression Mean", "setting": "MMP-3; 1.0 μM", "result": "0.88 Fraction of IL-1"},
      {"measurement": "MMP-3 mRNA expression Mean", "setting": "MMP-3; 3.0 μM", "result": "0.68 Fraction of IL-1"},
      {"measurement": "MMP-3 mRNA expression Mean", "setting": "MMP-3; 10.00 μM", "result": "0.43 Fraction of IL-1"}
    ]}
  ]
}
